Assay results from US11596639B2, “Substituted indole Mcl-1 inhibitors” (Vanderbilt University, priority 2016, dated 2023).
Like-named read-outs stand apart in the source and are kept apart here.

Columns and labels:
Mcl-1 = Mcl-1 (Homo sapiens (Human), UniProt Q07820); test: Fluorescence polarization anisotropy (FPA) competition assay, FITC-Bak or FITC-Bim BH3 peptide; type: binding; details: read-out: Ki for Inhibition of Mcl-1 by FPA assay
[1] = test system: H929 human cancer cell lines; test: Cellular viability / proliferation (Cell TiterGlo, 72 h); type: cell-based
Outline: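 Compounds were added as 2-fold serial dilutions from 50 μM (final DMSO <1%) to H929 cells seeded 1,000 per well in 10% FBS medium one day earlier.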

[2] = Homo sapiens, NCI-H929, 72 h, read-out: GI50 on cellular proliferation of H929 human cancer cell lines, H929 cells, 72 h, Cell TiterGlo, 10% FBS

Sequence of Mcl-1 (Q07820 172-327): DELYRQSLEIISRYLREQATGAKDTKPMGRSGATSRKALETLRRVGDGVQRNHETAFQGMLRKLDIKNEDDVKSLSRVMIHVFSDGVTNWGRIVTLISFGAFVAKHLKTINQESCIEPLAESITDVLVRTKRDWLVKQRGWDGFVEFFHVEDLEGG

SMILES	Ki (Mcl-1) [nM]	GI50 [1, 2] [nM]	GI50 ([1]; read-out: GI50 on cellular proliferation of H929 human cancer cell lines, H929 cells, 72 h, Cell TiterGlo, 10% FBS) [nM]
Cc1cc(OCCCc2c3n(c4c(-c5c(C)nn(C)c5C)c(Cl)ccc24)[C@H](C)CN(c2cccc4c2cc(C(=O)O)n4CCN2CCOCC2)C3=O)cc(C)c1Cl [Example 367, (R)-4-(7-Chloro-10-(3-(4-chloro-3,5-dimethylphenoxy)propyl)-4-methyl-1-oxo-6-(1,3,5-trimethyl-1H-pyrazol-4-yl)-3,4-dihydropyrazino[1,2-a]indol-2(1H)-yl)-1-(2-morpholinoethyl)-1H-indole-2-carboxylic acid]	1.2	400	–
Cc1cc(OCCCc2c3n(c4c(-c5c(C)nn(C)c5C)c(Cl)ccc24)[C@H](C)CN(c2cccc4c2cc(C(=O)O)n4CC2CCOCC2)C3=O)cc(C)c1Cl [Example 198, (R)-4-(7-Chloro-10-(3-(4-chloro-3,5-dimethylphenoxy)propyl)-4-methyl-1-oxo-6-(1,3,5-trimethyl-1H-pyrazol-4-yl)-3,4-dihydropyrazino[1,2-a]indol-2(1H)-yl)-1-((tetrahydro-2H-pyran-4-yl)methyl)-1H-indole-2-carboxylic acid]	< 1	610	–
Cc1cc(OCCCc2c3n(c4c(-c5c(C)nn(CCN6CCCC6)c5C)c(Cl)ccc24)[C@H](C)CN(c2cn(C)c4ccc(C(N)=O)cc24)C3=O)cc(C)c1Cl [Example 392, (R)-3-(7-chloro-10-(3-(4-chloro-3,5-dimethylphenoxy)propyl)-6-(3,5-dimethyl-1-(2-(pyrrolidin-1-yl)ethyl)-1H-pyrazol-4-yl)-4-methyl-1-oxo-3,4-dihydropyrazino[1,2-a]indol-2(1H)-yl)-1-methyl-1H-indole-5-carboxamide]	23	950	–
Cc1cc(OCCCc2c3n(c4c(-c5c(C)nn(C)c5C)c(Cl)ccc24)[C@H](C)CN(c2cccc4cc(C(=O)O)oc24)C3=O)cc(C)c1Cl [Example 194, (R)-7-(7-Chloro-10-(3-(4-chloro-3,5-dimethylphenoxy)propyl)-4-methyl-1-oxo-6-(1,3,5-trimethyl-1H-pyrazol-4-yl)-3,4-dihydropyrazino[1,2-a]indol-2(1H)-yl)benzofuran-2-carboxylic acid]	< 1	2300	–
Cc1cc(OCCCc2c3n(c4c(-c5c(C)ncnc5C)c(Cl)ccc24)[C@H](C)CN(c2cccc4cc(C(=O)O)ccc24)C3=O)cc(C)c1Cl [Example 218, 5-[(4R)-7-chloro-10-[3-(4-chloro-3,5-dimethyl-phenoxy)propyl]-6-(4,6-dimethylpyrimidin-5-yl)-4-methyl-1-oxo-3,4-dihydropyrazino[1,2-a]indol-2-yl]naphthalene-2-carboxylic acid]	< 1	< 200	–
Cc1cc(OCCCc2c3n(c4c(-c5c(C)nn(C)c5C)c(Cl)ccc24)CCCN(c2ccc4cnoc4c2)C3=O)cc(C)c1Cl [Example 64, 2-(1,2-benzoxazol-6-yl)-8-chloro-11-[3-(4-chloro-3,5-dimethyl-phenoxy)propyl]-7-(1,3,5-trimethylpyrazol-4-yl)-4,5-dihydro-3H-[1,4]diazepino[1,2-a]indol-1-one]	4.8	5600	–
Cc1cc(OCCCc2c3n(c4c(-c5c(C)ncnc5C)c(Cl)ccc24)[C@H](C)CN(c2cccc4c(C(=O)O)cn(C)c24)C3=O)cc(C)c1Cl [Example 168, 7-[(4R)-7-chloro-10-[3-(4-chloro-3,5-dimethyl-phenoxy)propyl]-6-(4,6-dimethylpyrimidin-5-yl)-4-methyl-1-oxo-3,4-dihydropyrazino[1,2-a]indol-2-yl]-1-methyl-indole-3-carboxylic acid]	1.1	1000	–
Cc1cc(OCCCc2c3n(c4c(-c5c(C)nc(COCc6ccccc6)nc5C)c(Cl)ccc24)CCCN(c2cn(C)c4ccc(C(=O)O)cc24)C3=O)cc(C)c1Cl [Example 294, 3-[7-[2-(benzyloxymethyl)-4,6-dimethyl-pyrimidin-5-yl]-8-chloro-11-[3-(4-chloro-3,5-dimethyl-phenoxy)propyl]-1-oxo-4,5-dihydro-3H-[1,4]diazepino[1,2-a]indol-2-yl]-1-methyl-indole-5-carboxylic acid]	< 1	2000	–
Cc1cc(OCCCc2c3n(c4c(-c5c(C)nn(C)c5C)c(Cl)ccc24)[C@H](C)CN(c2cn(CCN4CCOCC4)c4cc(C(=O)O)ccc24)C3=O)cc(C)c1Cl [Example 293, (R)-3-(7-chloro-10-(3-(4-chloro-3,5-dimethylphenoxy)propyl)-4-methyl-1-oxo-6-(1,3,5-trimethyl-1H-pyrazol-4-yl)-3,4-dihydropyrazino[1,2-a]indol-2(1H)-yl)-1-(2-morpholinoethyl)-1H-indole-6-carboxylic acid]	< 1	–	810
Cc1cc(OCCCc2c3n(c4c(-c5c(C)nn(C)c5C)c(Cl)ccc24)[C@H](C)CN(c2cn(C)c4ccc(-c5cnn(C)c5)cc24)C3=O)cc(C)c1Cl [Example 391, (R)-7-Chloro-10-(3-(4-chloro-3,5-dimethylphenoxy)propyl)-4-methyl-2-(1-methyl-5-(1-methyl-1H-pyrazol-4-yl)-1H-indol-3-yl)-6-(1,3,5-trimethyl-1H-pyrazol-4-yl)-3,4-dihydropyrazino[1,2-a]indol-1(2H)-one]	2.1	370	–
Cc1nn(C)c(C)c1-c1c(Cl)ccc2c(CCCOc3ccc(F)cc3)c3n(c12)[C@H](C)CN(c1cn(C)c2ccc(C(=O)O)cc12)C3=O [Example 410, (R)-3-(7-Chloro-10-(3-(4-fluorophenoxy)propyl)-4-methyl-1-oxo-6-(1,3,5-trimethyl-1H-pyrazol-4-yl)-3,4-dihydropyrazino[1,2-a]indol-2(1H)-yl)-1-methyl-1H-indole-5-carboxylic acid]	1.4	4000	–
Cc1cc(OCCCc2c3n(c4c(-c5c(C)nn(C)c5C)c(Cl)ccc24)[C@H](C)CN(c2cn(C)c4c(-c5nnn[nH]5)cccc24)C3=O)cc(C)c1Cl [Example 258, (R)-7-Chloro-10-(3-(4-chloro-3,5-dimethylphenoxy)propyl)-4-methyl-2-(1-methyl-7-(1H-tetrazol-5-yl)-1H-indol-3-yl)-6-(1,3,5-trimethyl-1H-pyrazol-4-yl)-3,4-dihydropyrazino[1,2-a]indol-1(2H)-one]	< 1	3600	–
COCCn1ncc2c(C(=O)O)cc(N3CCCn4c(c(CCCOc5cc(C)c(Cl)c(C)c5)c5ccc(Cl)c(-c6c(C)nn(C)c6C)c54)C3=O)cc21 [Example 82, 6-[8-Chloro-11-[3-(4-chloro-3,5-dimethyl-phenoxy)propyl]-1-oxo-7-(1,3,5-trimethylpyrazol-4-yl)-4,5-dihydro-3H-[1,4]diazepino[1,2-a]indol-2-yl]-1-(2-methoxyethyl)indazole-4-carboxylic acid]	< 1	4800	–
Cc1cc(N2C[C@@H](C)n3c(c(CCCOc4cc(C)c(Cl)c(C)c4)c4ccc(Cl)c(-c5c(C)ncnc5C)c43)C2=O)c2c(c1)cc(C(=O)O)n2C [Example 272, 7-[(4R)-7-chloro-10-[3-(4-chloro-3,5-dimethyl-phenoxy)propyl]-6-(4,6-dimethylpyrimidin-5-yl)-4-methyl-1-oxo-3,4-dihydropyrazino[1,2-a]indol-2-yl]-1,5-dimethyl-indole-2-carboxylic acid]	< 1	210	–
Cc1cc(OCCCc2c3n(c4c(-c5c(C)nn(C)c5C)c(Cl)ccc24)[C@H](C)CN(c2cc(OCCN(C)C)cc4cc(C(=O)O)n(C)c24)C3=O)cc(C)c1Cl [Example 455, (R)-7-(7-Chloro-10-(3-(4-chloro-3,5-dimethylphenoxy)propyl)-4-methyl-1-oxo-6-(1,3,5-trimethyl-1H-pyrazol-4-yl)-3,4-dihydropyrazino[1,2-a]indol-2(1H)-yl)-5-(2-(dimethylamino)ethoxy)-1-methyl-1H-indole-2-carboxylic acid]	< 1	220	–
Cc1cc(OCCCc2c3n(c4c(-c5c(C)nn(C)c5C)c(Cl)ccc24)[C@H](C)CN(c2cn(CCN(C)C)c4cc(C(=O)O)ccc24)C3=O)cc(C)c1Cl [Example 340, (R)-3-(7-Chloro-10-(3-(4-chloro-3,5-dimethylphenoxy)propyl)-4-methyl-1-oxo-6-(1,3,5-trimethyl-1H-pyrazol-4-yl)-3,4-dihydropyrazino[1,2-a]indol-2(1H)-yl)-1-(2-(dimethylamino)ethyl)-1H-indole-6-carboxylic acid]	4.4	1800	–
COc1cc(N2C[C@@H](C)n3c(c(CCCOc4cc(C)c(Cl)c(C)c4)c4ccc(Cl)c(-c5c(C)nn(C)c5C)c43)C2=O)c2c(c1)c(C(=O)O)cn2C [Example 436, (R)-7-(7-Chloro-10-(3-(4-chloro-3,5-dimethylphenoxy)propyl)-4-methyl-1-oxo-6-(1,3,5-trimethyl-1H-pyrazol-4-yl)-3,4-dihydropyrazino[1,2-a]indol-2(1H)-yl)-5-methoxy-1-methyl-1H-indole-3-carboxylic acid]	2.1	510	–
Cc1cc(OCCCc2c3n(c4c(-c5c(C)nn(C)c5C)c(Cl)ccc24)[C@H](C)CN(c2cn(CCC4CCOCC4)c4ccc(C(=O)O)cc24)C3=O)cc(C)c1Cl [Example 240, (R)-3-(7-Chloro-10-(3-(4-chloro-3,5-dimethylphenoxy)propyl)-4-methyl-1-oxo-6-(1,3,5-trimethyl-1H-pyrazol-4-yl)-3,4-dihydropyrazino[1,2-a]indol-2(1H)-yl)-1-(2-(tetrahydro-2H-pyran-4-yl)ethyl)-1H-indole-5-carboxylic acid]	< 1	1900	–
